EP0266890A1, “Imidazopyridine derivatives, their production, and pharmaceutical compositions containing them” (YAMANOUCHI PHARMACEUTICAL CO. LTD., priority 1986, dated 1988)

System: Gastric Acid Secretion
Assay: Histamine-stimulated gastric acid secretion in Heidenhain pouch dogs
Format: in vivo, beagle dogs
Conditions: histamine s.c. 1 hour after drug administration
Description: Six male beagle dogs (13 to 17kg) with well-established Heidenhain pouches were used for the construction of gastric acid secretion response curves. Food was withheld but water allowed for 18 hours before each experiment. Histamine (60 Mg/kg/hr) was administered subcutaneously 1 hour after drug administration. The pouch secretion was allowed to drain into a collection vessel which was changed every 15 minutes. Gastric juice volume was recorded, and acid concentration was determined by titration with 0.05N NaOH up to pH 7.0 using an automatic titrator (Hiranuma Sangyo Co., COMTITE-7).

Compared with `CCCCCOc1cccn2c(CC#N)c(C)nc12` [Example 12, 3-Cyanomethyl-2-methyl-8-pentyloxyimidazo-[1,2-a]pyridine], `C=CCOc1cccn2c(CC#N)c(C)nc12` [Known compound B, reference compound] is lower in “Gastric Acid Secretion Inhibitory Rate (%) Pouch Dog 3 mg/kg p.o.” value: 61% for the first, 21% for the second.

Going from `Cc1nc2c(OCC3CCCCC3)cccn2c1CC#N` [Example 11, 3-cyanomethyl-8-cyclohexylmethoxy-2-methylimidazo-[1,2-a]-pyridine] to `CC(C)=CCOc1cccn2c(CC#N)c(C)nc12` [Example 16, 3-Cyanomethyl-2-methyl-8-[(3-methyl-2-butenyl)-oxy]imidazo[1,2-a]pyridine], the “Gastric Acid Secretion Inhibitory Rate (%) Pouch Dog 3 mg/kg p.o.” value rises from 67% to 82%.

For `Cc1nc2c(OCc3ccccc3)cccn2c1CC#N` [Known compound A, reference compound], the “Gastric Acid Secretion Inhibitory Rate (%) Pouch Dog 3 mg/kg p.o.” value was 36%.

System: not listed separately
Assay: in vivo
Set-up: species or system Fischer-rats
Conditions: rat, po
Description: That is, LD50(p.o.) of the compound was higher than 1,000 mg/kg.

For `CC(C)=CCOc1cccn2c(CC#N)c(C)nc12` [Example 16, 3-Cyanomethyl-2-methyl-8-[(3-methyl-2-butenyl)-oxy]imidazo[1,2-a]pyridine], the LD50 at 24 h was > 1000 mg/kg.
